Values of other authors as cited in patent US6542858B1, “Pharmacokinetic-based drug design tool and method” (Lion Bioscience AG, priority 1998, dated 2003).

Tests used:
[1] = Plasma Kinetics; mass model parameter

In the case of Nc1nc2c(ncn2COC(CO)CO)c(=O)[nH]1.[Na] [Gancyclovir, 9-(1,3-dihydroxy-2-propoxymethyl)guanine, monosodium salt], the k21 [1] is listed as 0.670, the in vivo biotransformation is listed as “no in vivo biotransformation” and the absorption (in vivo) is listed as “poorly absorbed”.
